Results on 36 compounds are retold here after US9765075B2, “Substituted bridged urea analogs as sirtuin modulators” (GLAXOSMITHKLINE LLC, priority 2013, dated 2017).

This test concerns the target T1, SIRT1 (Homo sapiens, UniProt Q96EB6).
T1 sequence (Q96EB6 1-747): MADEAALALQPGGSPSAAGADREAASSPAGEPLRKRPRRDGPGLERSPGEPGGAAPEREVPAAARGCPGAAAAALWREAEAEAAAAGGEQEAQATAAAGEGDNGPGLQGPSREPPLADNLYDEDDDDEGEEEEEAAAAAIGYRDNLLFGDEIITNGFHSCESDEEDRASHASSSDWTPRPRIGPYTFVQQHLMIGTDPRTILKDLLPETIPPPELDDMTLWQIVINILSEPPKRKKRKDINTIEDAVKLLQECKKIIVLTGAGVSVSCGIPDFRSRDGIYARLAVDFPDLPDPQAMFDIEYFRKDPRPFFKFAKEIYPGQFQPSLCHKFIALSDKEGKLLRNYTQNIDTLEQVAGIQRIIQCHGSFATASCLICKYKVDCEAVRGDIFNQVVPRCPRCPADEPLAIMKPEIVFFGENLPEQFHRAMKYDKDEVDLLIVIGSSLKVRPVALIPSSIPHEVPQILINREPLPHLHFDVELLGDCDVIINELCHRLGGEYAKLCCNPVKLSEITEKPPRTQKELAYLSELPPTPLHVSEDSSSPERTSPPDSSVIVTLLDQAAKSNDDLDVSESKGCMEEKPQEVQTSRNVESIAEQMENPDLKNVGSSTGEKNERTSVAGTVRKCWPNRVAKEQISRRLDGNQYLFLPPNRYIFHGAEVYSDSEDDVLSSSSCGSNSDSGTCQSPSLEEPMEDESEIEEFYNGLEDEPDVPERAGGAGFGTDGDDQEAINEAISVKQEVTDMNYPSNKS
The experiment in a line: Trp mass spectrometry assay (SIRT1 activation). It counts as biochemical. Conditions: for Emax: percent maximum fold activation of SIRT1, read-out: Tryp % Fold Act. Put shortly:
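Activation is expressed as EC1.5, the concentration raising activity 50% above DMSO control, and as maximum percent of control. Mass-spec readout was OAADPR or deacetylated Trp peptide after a formic-acid-quenched 25-min, 25 °C reaction: 10 nM bacterially expressed His-SIRT1, 0.5 μM acetyl-p53-derived peptide, 120 μM NAD+, pH 7.5 HEPES with […].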

Setting [1] is: Trp mass spectrometry assay, EC1.5 = concentration giving 150% activation of SIRT1.
Where [2] appears, read: concentration of test compound that results in 150% activation of SIRT1, Trp peptide substrate.
Setting [3] is: Trp mass spectrometry assay, EC1.5 = concentration of test compound that results in 150% activation of SIRT1.

SMILES strings stand for the structures. Where two headings read alike, the source gives them in different places.

Turning to `FC(F)(F)c1cccc(-c2ccc3c(n2)N(C(=S)Nc2cccc(-c4cnco4)c2)[C@H]2CCN3C2)c1` [Example 763], the “Tryp AVG EC1.5 (μM)” value under setting [1] is recorded as “A (EC1.5<1 μM)”. Further, the Emax (Trp mass spectrometry assay) was no less than 150%. Consider `O=C(Nc1cncc(Br)c1)N1c2nc(-c3cccc(C(F)(F)F)c3)ccc2N2CC[C@H]1C2` [Example 542], for which the “Tryp AVG EC1.5 (μM)” value under setting [2] was “A (EC1.5<1 μM)”. Also, for the setting “Trp peptide substrate”, the Emax was no less than 150%. Consider `O=C(Nc1cccnn1)N1c2nc(-c3cccc(F)c3)ccc2N2CC[C@H]1C2` [Example 58], for which the Emax (Trp mass spectrometry assay) is no less than 150%. `O=C(Nc1cccnc1)N1c2nc(-c3cncc(Cl)c3)ccc2N2CCC1CC2` [Example 544]: under setting [2], the “Tryp AVG EC1.5 (μM)” value was “B (EC1.5 1-25 μM)”. For the same compound, the Emax (Trp peptide substrate) is no less than 150%. Turning to `Cc1cnccc1NC(=O)N1c2nc(-c3cccc(C(F)(F)F)c3)ccc2N2CC[C@H]1C2` [Example 21], for the setting “Trp mass spectrometry assay”, the Emax is no less than 150%. For the compound `Cc1n[nH]cc1-c1ccc2c(n1)N(C(=O)Nc1ccccn1)[C@H]1CCN2C1` [Example 370], the “Tryp AVG EC1.5 (μM)” value under setting [2] is “B (EC1.5 1-25 μM)”. Also, for the setting “Trp peptide substrate”, the Emax was no less than 150%. On to `CCc1cccc(C)c1NC(=O)N1c2nc(-c3cccc(C(F)(F)F)c3)ccc2N2CC[C@H]1C2` [Example 69], for which the Emax (Trp mass spectrometry assay) is less than 150%. As for `O=C(CCCC[C@@H]1SCC2NC(=O)NC21)NCCCCCC(=O)NCc1ccc(NC(=O)N2c3nc(-c4cccc(C(F)(F)F)c4)ccc3N3CC[C@H]2C3)cc1` (stereo partly drawn) [Example 428], under setting [2], the “Tryp AVG EC1.5 (μM)” value was “A (EC1.5<1 μM)”. The Emax (Trp peptide substrate) was no less than 150%.

Turning to `O=C(CCCC[C@@H]1SC[C@@H]2NC(=O)N[C@@H]21)NCCCCCC(=O)NCc1cn(-c2cccc(NC(=O)N3c4nc(-c5cccc(C(F)(F)F)c5)ccc4N4CC[C@H]3C4)c2)nn1` [Example 607], under setting [2], the “Tryp AVG EC1.5 (μM)” value was “A (EC1.5<1 μM)”. As to `Cc1cc(-c2ccc3c(n2)N(C(=O)Nc2ccc4cn(C)cc4c2)[C@H]2CCN3C2)ccn1` [Example 483], the “Tryp AVG EC1.5 (μM)” value under setting [2] is “A (EC1.5<1 μM)”. The Emax (Trp peptide substrate) was no less than 150%. For `COc1cc(NC(=O)N2c3nc(-c4cccc(N(C)C)c4)ccc3N3CCC[C@@H]2C3)ncn1` [Example 265], in that order: “B (EC1.5 1-25 μM)” and no less than 150%. In the case of `O=C(Nc1cccc(-c2ccoc2)n1)N1c2nc(-c3cccc(C(F)(F)F)c3)ccc2N2CC[C@H]1C2` [Example 654], the “Tryp AVG EC1.5 (μM)” value under setting [1] is “A (EC1.5<1 μM)”. Besides, the Emax (Trp mass spectrometry assay) was no less than 150%.

With `O=C(Nc1cccc(-c2cccnc2)n1)N1c2nc(-c3cccc(C(F)(F)F)c3)ccc2N2CC[C@H]1C2` [Example 655], the “Tryp AVG EC1.5 (μM)” value under setting [1] was “A (EC1.5<1 μM)”. Also, the Emax (Trp mass spectrometry assay) was no less than 150%. `CS(=O)(=O)c1cncc(-c2ccc3c(n2)N(C(=O)Nc2ccccn2)[C@H]2CCN3C2)c1` [Example 328]: the “Tryp AVG EC1.5 (μM)” value under setting [2] is on record as “B (EC1.5 1-25 μM)”. The Emax (Trp peptide substrate) is no less than 150%.

`O=C(Nc1ccncn1)N1c2nc(-c3cccc(C(F)(F)F)n3)ccc2N2CC[C@H]1C2` [Example 337]: the “Tryp AVG EC1.5 (μM)” value under setting [2] is listed as “B (EC1.5 1-25 μM)”. For the same compound, the Emax (Trp peptide substrate) was no less than 150%. On to `Cc1noc(C)c1-c1cccc(NC(=O)N2c3nc(-c4cccc(C(F)(F)F)c4)ccc3N3CC[C@H]2C3)n1` [Example 657], for which the “Tryp AVG EC1.5 (μM)” value under setting [1] is listed as “A (EC1.5<1 μM)”. Also, the Emax (Trp mass spectrometry assay) is no less than 150%.

Turning to `Cc1nn(C)cc1NC(=O)N1c2nc(-c3cccc(C(F)(F)F)c3)ccc2N2CC[C@H]1C2` [Example 92], the “Tryp AVG EC1.5 (μM)” value under setting [3] is recorded as “B (EC1.5 1-25 μM)”. Also, the Emax (Trp mass spectrometry assay) is no less than 150%. On to `O=C(Nc1ccncc1)N1c2nc(-c3cccc(C(F)(F)F)c3)ccc2N2CC[C@H]1C2` [Example 817], for which the “Tryp AVG EC1.5 (μM)” value under setting [1] is given as “A (EC1.5<1 μM)”. Moreover, the Emax (Trp mass spectrometry assay) was no less than 150%.

Take `O=C(NCCn1ccnc1)N1c2nc(-c3cccc(C(F)(F)F)c3)ccc2N2CC[C@H]1C2` [Example 661]: under setting [1], the “Tryp AVG EC1.5 (μM)” value is given as “C (EC1.5>25 μM)”. For the same compound, the Emax (Trp mass spectrometry assay) was no less than 150%. With `O=C(Nc1cnccn1)N1c2nc(-c3cccnc3)ccc2N2CCC[C@H]1C2` [Example 454], the “Tryp AVG EC1.5 (μM)” value under setting [2] is “B (EC1.5 1-25 μM)”. The Emax (Trp peptide substrate) is no less than 150%.

In the case of `[N-]=[N+]=NCc1cc(N=[N+]=[N-])cc(-c2ccc3c(n2)N(C(=O)Nc2ccc(F)cn2)[C@H]2CCN3C2)c1` [Example 806], the “Tryp AVG EC1.5 (μM)” value under setting [1] was “A (EC1.5<1 μM)”. In addition, the Emax (Trp mass spectrometry assay) was no less than 150%.

Turning to `COc1cc(NC(=O)N2c3nc(-c4cccc(N5CCOCC5)c4)ccc3N3CCC[C@H]2C3)ncn1` [Example 528], under setting [2], the “Tryp AVG EC1.5 (μM)” value was “B (EC1.5 1-25 μM)”. The Emax (Trp peptide substrate) was no less than 150%. On to `COc1ccc(C)nc1NC(=O)N1c2nc(-c3cccc(C(F)(F)F)c3)ccc2N2CC[C@H]1C2` [Example 77], for which the “Tryp AVG EC1.5 (μM)” value under setting [3] was “B (EC1.5 1-25 μM)”. Moreover, the Emax (Trp mass spectrometry assay) was no less than 150%. As to `O=C(Nc1cccc(-c2cnco2)c1)N1c2nc(N3CCCC(C(F)(F)F)C3)ccc2N2CCC[C@@H]1C2` (stereo partly drawn) [Example 299], the “Tryp AVG EC1.5 (μM)” value under setting [2] is given as “A (EC1.5<1 μM)”. The Emax (Trp peptide substrate) was no less than 150%. For the compound `Cc1cc(-c2ccc3c(n2)N(C(=O)Nc2cncc(-c4cnco4)c2)[C@H]2CCN3C2)ccn1` [Example 748], the “Tryp AVG EC1.5 (μM)” value under setting [1] is on record as “A (EC1.5<1 μM)”. Besides, the Emax (Trp mass spectrometry assay) was no less than 150%. On to `Cc1nc(-c2cccc(NC(=O)N3c4nc(-c5cccc(C(F)(F)F)c5)ccc4N4CC[C@H]3C4)c2)cs1` [Example 583], for which the “Tryp AVG EC1.5 (μM)” value under setting [2] is “A (EC1.5<1 μM)”. The Emax (Trp peptide substrate) is no less than 150%. Consider `NCc1cccc(NC(=O)N2c3nc(-c4cccc(C(F)(F)F)c4)ccc3N3CC[C@H]2C3)c1` [Example 755], for which the “Tryp AVG EC1.5 (μM)” value under setting [1] was “B (EC1.5 1-25 μM)”. For the setting “Trp mass spectrometry assay”, the Emax is no less than 150%. For `CC(=O)N1CCC(c2cccc(NC(=O)N3c4nc(-c5cccc(C(F)(F)F)c5)ccc4N4CC[C@H]3C4)c2)C1` (stereo partly drawn) [Example 635], in that order: “A (EC1.5<1 μM)” and no less than 150%. Consider `Cn1cc(NC(=O)N2c3nc(-c4cccc(C(F)(F)F)c4)ccc3N3CC[C@H]2C3)cn1` [Example 49], for which the Emax (Trp mass spectrometry assay) was no less than 150%. `Cc1nc(NC(=O)N2c3nc(-c4cccc(C(F)(F)F)c4)ccc3N3C[C@@H](O)[C@H]2C3)sc1C` [Example 699]: the “Tryp AVG EC1.5 (μM)” value under setting [1] is recorded as “B (EC1.5 1-25 μM)”. Besides, the Emax (Trp mass spectrometry assay) is no less than 150%.

Regarding `Cc1cc(-c2ccc3c(n2)N(C(=O)Nc2ccc4c(cnn4C)c2)[C@H]2CCN3C2)ccn1` [Example 502], under setting [2], the “Tryp AVG EC1.5 (μM)” value was “A (EC1.5<1 μM)”. Moreover, the Emax (Trp peptide substrate) is no less than 150%. As for `O=C(Nc1ccncn1)N1c2nc(-c3cccc(OC(F)(F)F)c3)ccc2N2CC[C@H]1C2` [Example 166], under setting [3], the “Tryp AVG EC1.5 (μM)” value was “A (EC1.5<1 μM)”. For the same compound, the Emax (Trp mass spectrometry assay) was no less than 150%. Regarding `O=C(Nc1ccccn1)N1c2nc(-c3cccc(F)c3)ccc2N2CC[C@H]1C2` [Example 57], where the note is “Trp mass spectrometry assay”, the Emax is no less than 150%. Regarding `Cc1nc(NC(=O)N2c3nc(-c4cccc(C#N)c4)ccc3N3CC[C@H]2C3)sc1C` [Example 179], the “Tryp AVG EC1.5 (μM)” value under setting [3] is reported as “A (EC1.5<1 μM)”. Further, the Emax (Trp mass spectrometry assay) is no less than 150%. In the case of `COc1cc(NC(=O)N2c3nc(-c4cncc(C(F)(F)F)c4)ccc3N3CC[C@H]2C3)ncn1` [Example 317], the “Tryp AVG EC1.5 (μM)” value under setting [2] is given as “B (EC1.5 1-25 μM)”. Besides, the Emax (Trp peptide substrate) was no less than 150%. As to `COC(=O)c1cccc(NC(=O)N2c3nc(-c4cccc(C(F)(F)F)c4)ccc3N3CC[C@H]2C3)c1` [Example 626], the “Tryp AVG EC1.5 (μM)” value under setting [1] was “A (EC1.5<1 μM)”. Also, the Emax (Trp mass spectrometry assay) is no less than 150%.
